Assay results: ChEMBL document CHEMBL1615344, “Cerep in vitro phospholipidosis assay data”

What was measured:
[1] = (§1) Cerep Phospholipidosis assay (HepG2 cells); format: ADME, cell-based; conditions: human, HepG2 cells; read-out: Maximum test concentration that did not exhibit cytotoxicity
Phospholipidosis = test: as §1; format: ADME, cell-based; conditions: human, hepg2

| Structure (SMILES) | MNTC [1] [µM] | Phospholipidosis as % of positive control (Phospholipidosis) [%] |
| --- | --- | --- |
| CN(C)CCCN1c2ccccc2Sc2ccc(Cl)cc21 [CHLORPROMAZINE] | 5 | 54.7 |
| CC(C)NCC(O)COc1cccc2ccccc12 (stereo not drawn) [PROPRANOLOL] | 25 | 36 |
| CN1CCN(C2=Nc3cc(Cl)ccc3Nc3ccccc32)CC1 [CLOZAPINE] | 12.5 | 18.9 |
| OCCOCCN1CCN(C(c2ccccc2)c2ccc(Cl)cc2)CC1 (stereo not drawn) [HYDROXYZINE] | 25 | 35.8 |
| C1CCC(C(CC2CCCCN2)C2CCCCC2)CC1 (stereo not drawn) [PERHEXILINE] | 3.13 | 36 |
| CN(Cc1cc(Br)cc(Br)c1N)C1CCCCC1 [BROMHEXINE] | 50 | 30.1 |
| CN(C)CCC=C1c2ccccc2COc2ccccc21 [DOXEPIN] | 25 | 36.4 |
| O=C(CCCN1CCC(O)(c2ccc(Cl)cc2)CC1)c1ccc(F)cc1 [HALOPERIDOL] | 12.5 | 42.1 |
| CN(C)CCC=C1c2ccccc2CCc2ccccc21 [AMITRIPTYLINE] | 20 | 49.8 |
| CCCC(CCC)C(=O)O [VALPROIC ACID] | 100 | 0.2 |
| CCN(CC)CCOc1ccc2c(c1)C(=O)c1cc(OCCN(CC)CC)ccc1-2 [TILORONE] | 3.13 | 20.2 |
| CCN(CC)CCOc1ccc(C(O)(Cc2ccc(Cl)cc2)c2ccc(C)cc2)cc1 (stereo not drawn) [TRIPARANOL] | 3.13 | 44.9 |
| CNCCC(Oc1ccc(C(F)(F)F)cc1)c1ccccc1 (stereo not drawn) [FLUOXETINE] | 5 |  |
| CC(C)NCC(O)c1ccc(NS(C)(=O)=O)cc1 (stereo not drawn) [SOTALOL] | 50 | 0.3 |
| CNCCCC12CCC(c3ccccc31)c1ccccc12 [MAPROTILINE] | 6.25 | 42.2 |
| CN(C)CCCN1c2ccccc2CCc2ccccc21 [IMIPRAMINE] | 6.25 | 2.1 |

| Structure (SMILES) | MNTC [1] [µM] | Phospholipidosis as % of positive control (Phospholipidosis) [%] |
| --- | --- | --- |
| Cc1cccc(CN2CCN(C(c3ccccc3)c3ccc(Cl)cc3)CC2)c1 (stereo not drawn) [MECLIZINE] | 25 | 10.5 |
| CCN(CC)CCCC(C)Nc1ccnc2cc(Cl)ccc12 (stereo not drawn) [CHLOROQUINE] | 10 | 22.8 |
| C=C[C@H]1C[N@@]2CC[C@H]1C[C@@H]2[C@@H](O)c1ccnc2ccc(OC)cc12 [QUINIDINE] | 25 | 3.2 |
| CC1=CC(=O)c2ccccc2C1=O [MENADIONE] | 3.13 | 1 |
| CN[C@H]1CC[C@@H](c2ccc(Cl)c(Cl)c2)c2ccccc21 [SERTRALINE] | 3.13 | 100 |
| NCC[C@H](O)C(=O)N[C@@H]1C[C@H](N)[C@@H](O[C@H]2O[C@H](CN)[C@@H](O)[C@H](O)[C@H]2O)[C@H](O)[C@H]1O[C@H]1O[C@H](CO)[C@@H](O)[C@H](N)[C@H]1O [AMIKACIN] | 25 | 4.9 |
| CC/C(=C(\c1ccccc1)c1ccc(OCCN(C)C)cc1)c1ccccc1 [TAMOXIFEN] | 6.25 | 53 |
| CC(CCc1ccccc1)NCC(O)c1ccc(O)c(C(N)=O)c1 (stereo not drawn) [LABETALOL] | 25 | 5.3 |
| CC(=O)Nc1ccc(O)cc1 [ACETAMINOPHEN] | 100 | 0.3 |
| CC[C@H]1OC(=O)[C@H](C)[C@@H](O[C@H]2C[C@@](C)(OC)[C@@H](O)[C@H](C)O2)[C@H](C)[C@@H](O[C@@H]2O[C@H](C)C[C@H](N(C)C)[C@H]2O)[C@](C)(O)C[C@@H](C)CN(C)[C@H](C)[C@@H](O)[C@]1(C)O [AZITHROMYCIN] | 25 | 26.7 |
| CC(=O)N1CCN(c2ccc(OCC3COC(Cn4ccnc4)(c4ccc(Cl)cc4Cl)O3)cc2)CC1 (stereo not drawn) [KETOCONAZOLE] | 12.5 | 52 |
| Nc1c(Br)cc(Br)cc1CN[C@H]1CC[C@H](O)CC1 [AMBROXOL] | 50 | 29.7 |
| CC[C@H]1OC(=O)[C@H](C)[C@@H](O[C@H]2C[C@@](C)(OC)[C@@H](O)[C@H](C)O2)[C@H](C)[C@@H](O[C@@H]2O[C@H](C)C[C@H](N(C)C)[C@H]2O)[C@](C)(O)C[C@@H](C)C(=O)[C@H](C)[C@@H](O)[C@]1(C)O [ERYTHROMYCIN] | 50 | 61.9 |
| CCCCc1oc2ccccc2c1C(=O)c1cc(I)c(OCCN(CC)CC)c(I)c1 [AMIODARONE] | 6.25 | 38.4 |
| CC1COc2c(N3CCN(C)CC3)c(F)cc3c(=O)c(C(=O)O)cn1c23 (stereo not drawn) [OFLOXACIN] | 50 | 0.3 |
| CN(C)CCCC1(c2ccc(F)cc2)OCc2cc(C#N)ccc21 (stereo not drawn) [CITALOPRAM] | 100 | 19.6 |
